# Source: patent US20080214572A1, “Selected Tetracyclic Tetrahydrofuran Derivatives Containing a Cyclic Amine Side Chain” (priority 2005, published 2008)
# Read-outs that look alike come from different tables or passages of the source.
# What was measured:
# [1] = target: T1, human cloned 5-HT2A receptor, expressed in L929 cells (Homo sapiens, UniProt P28223); experiment: In vitro radioligand binding affinity for 5-HT2A receptor ([125I]R91150)
# T1 construct: expressed in transfected cells; host or cells: L929 cells
# Protocol: (§1) The interaction of the compounds of Formula (I) with 5-HT2A and 5-HT2C receptors was assessed in in vitro radioligand binding experiments. In general, a low concentration of a radioligand with a high binding affinity for the receptor is incubated with a sample of a tissue preparation enriched in a particular receptor (1 to 5 mg tissue) in a buffered medium (0.2 to 5 ml). During the incubation, the radioligands bind to the receptor. When equilibrium of binding is reached, the receptor bound radioactivity is separated from the non-bound radioactivity, and the receptor bound activity is counted. The interaction of the test compounds with the receptors is assessed in competition binding experiments. Various concentrations of the test compound are added to the incubation mixture containing the tissue preparation and the radioligand. Binding of the radioligand will be inhibited by the test compound in proportion to its binding affinity and its concentration. The affinities of the compounds for the 5-HT2 receptors were measured by means of radioligand binding studies conducted with: (a) human cloned 5-HT2A receptor, expressed in L929 cells using [^125I]R91150 as radioligand and (b) human cloned 5-HT2C receptor, expressed in CHO cells using [^3H]mesulergine as radioligand.
# (§2) The results are given in Table 3 below in terms of pIC50 values for the respective compounds.
# [2] = target: T2, human cloned 5-HT2C receptor, expressed in CHO cells (Homo sapiens, UniProt P28335); experiment: In vitro radioligand binding affinity for 5-HT2C receptor ([3H]mesulergine)
# T2 construct: expressed in transfected cells; host or cells: CHO cells
# T2 sequence (P28335 33-458): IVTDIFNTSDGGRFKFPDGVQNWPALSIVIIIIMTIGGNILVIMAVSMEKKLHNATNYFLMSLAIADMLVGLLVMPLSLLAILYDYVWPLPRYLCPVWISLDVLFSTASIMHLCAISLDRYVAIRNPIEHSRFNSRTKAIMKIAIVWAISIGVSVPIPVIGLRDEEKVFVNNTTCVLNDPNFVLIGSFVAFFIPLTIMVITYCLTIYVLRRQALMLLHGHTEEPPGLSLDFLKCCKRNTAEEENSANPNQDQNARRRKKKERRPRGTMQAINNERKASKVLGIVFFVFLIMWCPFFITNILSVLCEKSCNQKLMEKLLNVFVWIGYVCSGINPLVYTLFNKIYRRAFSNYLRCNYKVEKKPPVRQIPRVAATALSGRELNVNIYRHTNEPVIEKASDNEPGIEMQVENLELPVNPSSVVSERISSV
# Protocol: as §1, §2
# [3] = target: T3, human Dopamine D2L receptor (Homo sapiens, UniProt P14416); experiment: In vitro binding affinity for human D2L receptor ([3H]Spiperone)
# T3 construct: expressed in transfected cells; host or cells: CHO cells (membranes)
# Protocol: Frozen membranes of human Dopamine D2L receptor-transfected CHO cells were thawed, briefly homogenized using an Ultra-Turrax T25 homogenizer and diluted in Tris-HCl assay buffer containing NaCl, CaCl2, MgCl2, KCl ([…] respectively, adjusted to pH 7.7 with HCl) to an appropriate protein concentration optimized for specific and non-specific binding. Radioligand [^3H]Spiperone (NEN, specific activity ˜70 Ci/mmol) was diluted in assay buffer at a concentration of 2 nmol/L. Prepared radioligand (50 μl), along with 50 μl of either the 10% DMSO control, Butaclamol (10^−6 mol/l final concentration), or compound of interest, was then incubated (30 min, 37° C.) with 400 μl of the prepared membrane solution. Membrane-bound activity was filtered through a Packard Filtermate harvester onto GF/B Unifilter plates and washed with ice-cold Tris-HCl buffer (50 mM; pH 7.7; 6×0.5 ml). Filters were allowed to dry before adding scintillation fluid and counting in a Topcount scintillation counter. Percentage specific bound and competition binding curves were calculated using S-Plus software (Insightful).
# as §2
# The values in the Table are pIC50 values and were determined in accordance with the procedure given above for determining D2 affinity.
# [4] = human cloned receptor in L929 cells, [125I]R91150, read-out: 5-HT2A pIC50 (converted)
# [5] = human cloned receptor in CHO cells, [3H]mesulergine, read-out: 5-HT2C pIC50 (converted)
# [6] = human D2L-transfected CHO cell membranes, [3H]Spiperone, read-out: D2L pIC50 (converted)
# [7] = Table 4, comparative data with prior art analogue
# T3 sequence (P14416 whole entry): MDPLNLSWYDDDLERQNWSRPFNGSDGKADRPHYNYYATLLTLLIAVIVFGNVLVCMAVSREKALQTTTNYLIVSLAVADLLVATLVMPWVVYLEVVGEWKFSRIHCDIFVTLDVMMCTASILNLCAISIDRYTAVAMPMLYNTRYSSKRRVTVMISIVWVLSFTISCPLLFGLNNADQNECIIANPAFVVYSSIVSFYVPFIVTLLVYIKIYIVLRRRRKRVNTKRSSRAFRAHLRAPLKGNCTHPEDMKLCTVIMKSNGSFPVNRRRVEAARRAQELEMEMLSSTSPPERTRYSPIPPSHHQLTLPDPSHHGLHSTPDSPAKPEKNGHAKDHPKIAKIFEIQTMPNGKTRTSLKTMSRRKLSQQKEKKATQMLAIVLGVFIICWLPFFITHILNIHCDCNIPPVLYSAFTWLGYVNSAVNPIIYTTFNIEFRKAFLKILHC
# T1 sequence (P28223 whole entry): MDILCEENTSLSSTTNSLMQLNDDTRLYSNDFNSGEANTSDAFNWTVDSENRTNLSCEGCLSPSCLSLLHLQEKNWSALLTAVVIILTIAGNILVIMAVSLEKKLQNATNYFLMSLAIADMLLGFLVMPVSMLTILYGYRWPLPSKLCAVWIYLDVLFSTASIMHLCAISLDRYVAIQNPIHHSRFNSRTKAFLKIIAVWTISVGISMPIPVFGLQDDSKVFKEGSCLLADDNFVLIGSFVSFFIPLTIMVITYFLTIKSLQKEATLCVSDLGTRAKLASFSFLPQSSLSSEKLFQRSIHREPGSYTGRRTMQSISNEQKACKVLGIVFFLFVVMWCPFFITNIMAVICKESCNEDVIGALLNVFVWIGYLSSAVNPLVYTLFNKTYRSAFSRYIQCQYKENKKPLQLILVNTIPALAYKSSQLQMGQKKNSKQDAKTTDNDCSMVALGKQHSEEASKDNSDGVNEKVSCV
Structure (SMILES),"IC50 [1, 4]","IC50 [2, 5]","IC50 [3, 6]",IC50 [1],IC50 [2],IC50 [3],"h-D2L pIC50 [3, 7]","IC50 ([3]; Table 4, comparative data with prior art analogue, read-out: h-D2L pIC50 (converted))"
CC(=O)OCCN1CCN(C[C@H]2C[C@@H]3c4ccccc4Cc4ccc(F)cc4[C@H]3O2)CC1 [Compound 5],14.5 nM,19.1 nM,7.41 nM,–,–,–,–,–
CC(C)CN1CCN(C[C@H]2C[C@@H]3c4ccccc4Cc4ccc(F)cc4[C@H]3O2)CC1 [Compound 40],26.9 nM,52.5 nM,12.3 nM,–,–,–,–,–
Fc1ccc(CN2CCN(C[C@H]3C[C@@H]4c5ccccc5Cc5ccc(F)cc5[C@H]4O3)CC2)cc1 [Compound 47],–,–,–,30.9 nM,129 nM,9.12 nM,–,–
COC(=O)N1CCN(C[C@H]2C[C@@H]3c4ccccc4Cc4ccc(F)cc4[C@H]3O2)CC1 [Compound 31],4.68 nM,13.8 nM,14.1 nM,–,–,–,–,–
OCCN1CCN(C[C@H]2C[C@@H]3c4ccccc4Sc4ccc(F)cc4[C@H]3O2)CC1 [Compound 39],0.692 nM,6.92 nM,2 nM,–,–,–,–,–
CCOC(=O)N1CCN(C[C@H]2C[C@@H]3c4ccccc4Cc4ccc(F)cc4[C@H]3O2)CC1 [Compound 20],4.27 nM,9.55 nM,33.1 nM,–,–,–,–,–
Fc1ccc2c(c1)[C@H]1O[C@@H](CN3CCN(Cc4ccc(Cl)cc4)CC3)C[C@@H]1c1ccccc1C2 [Compound 42],–,–,–,49 nM,77.6 nM,28.2 nM,–,–
CCCCC(O)CN1CCN(CC2CC3c4ccccc4Cc4ccc(F)cc4C3O2)CC1 (stereo not drawn) [Compound 29],10 nM,23.4 nM,6.03 nM,–,–,–,8.22,–
OC(CN1CCN(C[C@H]2C[C@@H]3c4ccccc4Cc4ccc(F)cc4[C@H]3O2)CC1)c1ccccc1 (stereo partly drawn) [Compound 27],9.55 nM,20.4 nM,4.07 nM,–,–,–,–,–
Fc1ccc2c(c1)[C@H]1O[C@@H](CN3CCCCCC3)C[C@@H]1c1ccccc1C2 [Compound 10],9.77 nM,3.09 nM,16.2 nM,–,–,–,–,–
CC(C)OC(=O)N1CCN(C[C@H]2C[C@@H]3c4ccccc4Cc4ccc(F)cc4[C@H]3O2)CC1 [Compound 32],5.13 nM,32.4 nM,22.9 nM,–,–,–,–,–
"OCCN1CCN(CC2CC3c4ccccc4Cc4ccc(F)cc4C3O2)CC1 (stereo not drawn) [Prior art compound 21from WO 99/19317, reference compound]",–,–,–,–,–,–,–,110 nM
Cc1ccccc1CN1CCN(C[C@H]2C[C@@H]3c4ccccc4Cc4ccc(F)cc4[C@H]3O2)CC1 [Compound 43],–,–,–,40.7 nM,105 nM,44.7 nM,–,–
CCOCCN1CCN(C[C@H]2C[C@@H]3c4ccccc4Cc4ccc(F)cc4[C@H]3O2)CC1 [Compound 34],0.851 nM,5.01 nM,2.51 nM,–,–,–,–,–
CC1CCCN1C[C@H]1C[C@@H]2c3ccccc3Cc3ccc(F)cc3[C@H]2O1 (mixture of isomers) [Compound 16],8.51 nM,4.37 nM,40.7 nM,–,–,–,–,–
Fc1ccc2c(c1)[C@H]1O[C@@H](CN3CCN(CC(c4ccccc4)c4ccccc4)CC3)C[C@@H]1c1ccccc1C2 [Compound 41],97.7 nM,295 nM,95.5 nM,–,–,–,–,–
Fc1ccc2c(c1)C1OC(CN3CCCC3)CC1c1ccccc1C2 (stereo not drawn) [Compound 4],4.68 nM,5.25 nM,24 nM,–,–,–,–,–
CC1CCN(C[C@H]2C[C@@H]3c4ccccc4Cc4ccc(F)cc4[C@H]3O2)CC1 [Compound 12],3.89 nM,1 nM,1.35 nM,–,–,–,–,–
Fc1ccc2c(c1)[C@H]1O[C@@H](CN3CCN(Cc4ccc(C(F)(F)F)cc4)CC3)C[C@@H]1c1ccccc1C2 [Compound 48],–,–,–,234 nM,302 nM,85.1 nM,–,–
OC(CCN1CCN(C[C@H]2C[C@@H]3c4ccccc4Cc4ccc(F)cc4[C@H]3O2)CC1)c1ccc(F)cc1 (stereo partly drawn) [Compound 46],5.13 nM,8.51 nM,1.12 nM,–,–,–,–,–
Fc1ccc2c(c1)C1OC(CN3CCCCC3)CC1c1ccccc1C2 (stereo not drawn) [Compound 17],1.91 nM,1 nM,5.89 nM,–,–,–,–,–
CCCCOC(=O)N1CCN(C[C@H]2C[C@@H]3c4ccccc4Cc4ccc(F)cc4[C@H]3O2)CC1 [Compound 33],11.7 nM,38 nM,17 nM,–,–,–,–,–
COCCN1CCN(C[C@H]2C[C@@H]3c4ccccc4Cc4ccc(F)cc4[C@H]3O2)CC1 [Compound 35],1.51 nM,7.41 nM,3.09 nM,–,–,–,–,–
OC(Cc1ccccc1)CN1CCN(CC2CC3c4ccccc4Cc4ccc(F)cc4C3O2)CC1 (stereo not drawn) [Compound 28],4.79 nM,10.7 nM,4.57 nM,–,–,–,8.34,–
Fc1ccc2c(c1)[C@H]1O[C@@H](CN3CCN(Cc4ccccc4)CC3)C[C@@H]1c1ccccc1C2 [Compound 45],–,–,–,18.6 nM,45.7 nM,7.94 nM,–,–
CC(C)(C)OCCN1CCN(C[C@H]2C[C@@H]3c4ccccc4Cc4ccc(F)cc4[C@H]3O2)CC1 [Compound 36],0.955 nM,5.5 nM,3.72 nM,–,–,–,–,–
CC(C)C(=O)N1CCN(C[C@H]2C[C@@H]3c4ccccc4Cc4ccc(F)cc4[C@H]3O2)CC1 [Compound 22],3.8 nM,39.8 nM,34.7 nM,–,–,–,–,–
